Experimental data from PMC2631173 (Chemistry & biology, 2008).

Biological target: cellular retinoic acid-binding protein I (CRABP I), CPG variant (Mus musculus, UniProt P62965, R132Q)
Assay: fluorescence equilibrium titration of […] FlAsH with purified protein, […] EDT

cellular retinoic acid-binding protein I (CRABP I), CPG variant, sequence (P62965 2-137 R132Q): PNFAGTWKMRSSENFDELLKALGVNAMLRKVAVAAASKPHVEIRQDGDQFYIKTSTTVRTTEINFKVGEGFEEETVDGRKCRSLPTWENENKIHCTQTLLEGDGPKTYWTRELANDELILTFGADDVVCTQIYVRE

O=C1OC2(c3ccccc31)c1ccc(O)c([As]3SCCS3)c1Oc1c2ccc(O)c1[As]1SCCS1 [FlAsH]
Kd: 400 nM
